Assay results taken from PubChem BioAssay AID1963836 (Molecular Pharmacology Branch, DTP, NCI, 2024).

Test system: 857933-349-R-J2-PDC complex spheroid viability
Assay: Anticancer human tumor 857933-349-R-J2-PDC patient-derived colon adenocarcinoma cell line growth inhibition [POLQ]
Conditions: for IC50: curve of first compound; for viability, T/C: stronger effect = lower value
Description: Multicellular complex tumor spheroid response to Polymerase (POL) inhibitors (novobiocin, ART-558, RP6685) in combination with a variety of drugs and investigational agents in selected tumor cell lines
The POL inhibitors (novobiocin, ART-558, and RP6685) were evaluated both individually and in combination with standard of care and investigational anticancer small molecules within a complex spheroid model of solid tumors. . Complex spheroids include a stromal component modeled by human endothelial cells (HUVEC) and fibroblasts modeled by human mesenchymal stem cells (MSCs). The concentration ranges selected for each drug and investigational agent were based upon clinically achievable concentrations if the clinical Cmax of the agent was known.
Compounds. The drugs and investigational agents: novobiocin (NSC847541), ART-558 (NSC835418), RP-6685 (NSC848927), peposertib (NSC802822), ceralasertib (NSC780249), elimusertib (NSC800525), camonsertib (NSC841442), AZD-1390 (NSC803789), olaparib (NSC753686), talazoparib (NSC767125), rucaparib (NSC756644), sotorasib (NSC818433), MRTX-1133 (NSC836407), SN-38 (NSC673596), topotecan (NSC609699), epotoside (NSC141540), doxorubicin (NSC123127), gemcitabine (NSC613327), 5-fluorouracil (NSC19893), paclitaxel (NSC125973), vemurafenib (NSC761431), MSA-2 (NSC828583), SN-011 (NSC837082), adavosertib (NSC754352), prexasertib (NSC758257), carboplatin (NSC241240) and oxaliplatin (NSC266046), were obtained from the National Cancer Institute (NCI) Developmental Therapeutics Program Chemical Repository (21). The FDA-approved anticancer drug set is available from the Developmental Therapeutics Program at https://dtp.cancer.gov/organization/dscb/obtaining/. […] The stock solutions were prepared in dimethyl sulfoxide (DMSO, Sigma-Aldrich, St. Louis, MO, cat. D2650), except for the platinum compounds which were prepared in saline (Quality Biological, Gaithersburg, MD, cat. 114-055-101), at 800-fold the tested concentration and stored at -70 degrees C prior to their use. All drugs and investigational agents were tested over a range starting from a high concentration at or near the clinical Cmax and decreasing in half-log increments. If the clinical Cmax for an agent had not been determined, the highest concentration tested was 10 microM, except for SN-38, which was tested at a high concentration of 1 microM.
Cell Culture. All cells were maintained in an incubator at 37 degrees C and 5% CO2 with 95% humidity. The PDC lines were cultured according to standard operating procedures established by the NCI PDMR (https://pdmr.cancer.gov). Table 3 of the manuscript, lists the cell lines along with the number of the three cell types plated to form the mct-spheroids and media for tumor cell growth. After thawing, all PDC lines, except 997537-175-T-J1-PDC and 415267-285-R-J2-PDC, were cultured in Matrigel-coated flasks prepared with a working solution of 1X Ham's F-12 nutrient mix, without supplementation (Thermo Fisher Scientific, cat. 11765054), 100 U/mL penicillin-streptomycin (Thermo Fisher Scientific, cat. 15140122), and 2.5% Matrigel (Corning Inc., Corning, NY, cat. 354248) for the first three passages. The two PDC lines 997537-175-T-J1-PDC and 415267-285-R-J2-PDC were cultured on uncoated flasks. The 857933-349-R-J2-PDC line was cultured in 6C/Colon 1B media containing advanced DMEM/F-12 (Thermo Fisher Scientific, cat. 12634028), 10 mM HEPES (Thermo Fisher Scientific, cat. 15630080), 1X GlutaMAX supplement (Thermo Fisher Scientific, cat. 35050061), 0.1 mg/mL primocin (InvivoGen, San Diego, CA, cat. ant-pm-2), 10% defined fetal bovine serum, heat inactivated (HyClone Laboratories Inc., Logan, UT, cat. SH30070.03HI), 50% L-WRN conditioned media (ATCC, cat. CRL-3276), 1.25 mM N-Acetyl-L-cysteine (Sigma-Aldrich, cat. A9165), 10 mM nicotinamide (Sigma-Aldrich, cat. N0636), 1X B-27 supplement (Thermo Fisher Scientific, cat. 17504044), 1X N-2 supplement (Thermo Fisher Scientific, cat. […]

[1] = second compound 0.0316 µM, first compound 0.0316 µM
[2] = second compound 0.0316 µM, first compound 0.1 µM
[3] = second compound 0.0316 µM, first compound 0.316 µM
[4] = second compound 0.0316 µM, first compound 1 µM
[5] = second compound 0.0316 µM, first compound 3.16 µM
[6] = second compound 0.0316 µM, first compound 10 µM
[7] = second compound 0.1 µM, first compound 0.0316 µM
[8] = second compound 0.1 µM, first compound 0.1 µM
[9] = second compound 0.1 µM, first compound 0.316 µM
[10] = second compound 0.1 µM, first compound 1 µM
[11] = second compound 0.1 µM, first compound 3.16 µM
[12] = second compound 0.1 µM, first compound 10 µM
[13] = second compound 0.316 µM, first compound 0.0316 µM
[14] = second compound 0.316 µM, first compound 0.1 µM
[15] = second compound 0.316 µM, first compound 0.316 µM
[16] = second compound 0.316 µM, first compound 1 µM
[17] = second compound 0.316 µM, first compound 3.16 µM
[18] = second compound 0.316 µM, first compound 10 µM
[19] = second compound 1 µM, first compound 0.0316 µM
[20] = second compound 1 µM, first compound 0.1 µM
[21] = second compound 1 µM, first compound 0.316 µM
[22] = second compound 1 µM, first compound 1 µM
[23] = second compound 1 µM, first compound 3.16 µM
[24] = second compound 1 µM, first compound 10 µM
[25] = second compound 3.16 µM, first compound 0.0316 µM
[26] = second compound 3.16 µM, first compound 0.1 µM
[27] = second compound 3.16 µM, first compound 0.316 µM
[28] = second compound 3.16 µM, first compound 1 µM
[29] = second compound 3.16 µM, first compound 3.16 µM
[30] = second compound 3.16 µM, first compound 10 µM
[31] = second compound 10 µM, first compound 0.0316 µM
[32] = second compound 10 µM, first compound 0.1 µM
[33] = second compound 10 µM, first compound 0.316 µM
[34] = second compound 10 µM, first compound 1 µM
[35] = second compound 10 µM, first compound 3.16 µM
[36] = second compound 10 µM, first compound 10 µM
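Note: spheroids exposed to compounds for seven days before readout.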

COc1cc2cc(C(=O)CCC(=O)O)sc2cc1OC + Cc1cccc(N(C)C(=O)C2C(O)CCN2c2nc(C)cc(C(F)(F)F)c2C#N)c1
IC50 (second compound 0.0316 µM): > 10 µM
IC50 (second compound 0.1 µM): > 10 µM
IC50 (second compound 0.316 µM): > 10 µM
IC50 (second compound 1 µM): > 10 µM
IC50 (second compound 3.16 µM): > 10 µM
IC50 (second compound 10 µM): > 10 µM
viability, T/C [1]: 97.6%
viability, T/C [2]: 95.1%
viability, T/C [3]: 93.6%
viability, T/C [4]: 97.7%
viability, T/C [5]: 96.9%
viability, T/C [6]: 84.1%
viability, T/C [7]: 94.8%
viability, T/C [8]: 93%
viability, T/C [9]: 102%
viability, T/C [10]: 102%
viability, T/C [11]: 86.8%
viability, T/C [12]: 87.2%
viability, T/C [13]: 88.8%
viability, T/C [14]: 93.8%
viability, T/C [15]: 89.9%
viability, T/C [16]: 89.4%
viability, T/C [17]: 87.9%
viability, T/C [18]: 76.5%
viability, T/C [19]: 89.4%
viability, T/C [20]: 96.5%
viability, T/C [21]: 100%
viability, T/C [22]: 96.9%
viability, T/C [23]: 101%
viability, T/C [24]: 92.1%
viability, T/C [25]: 104%
viability, T/C [26]: 106%
viability, T/C [27]: 90.4%
viability, T/C [28]: 101%
viability, T/C [29]: 100%
viability, T/C [30]: 86.6%
viability, T/C [31]: 84.7%
viability, T/C [32]: 87.6%
viability, T/C [33]: 81.6%
viability, T/C [34]: 105%
viability, T/C [35]: 88.8%
viability, T/C [36]: 85.6%

CNCc1ccc(-c2[nH]c3cc(F)cc4c3c2CCNC4=O)cc1 + COC1C(OC(N)=O)C(O)C(Oc2ccc3c(O)c(NC(=O)c4ccc(O)c(CC=C(C)C)c4)c(=O)oc3c2C)OC1(C)C
IC50 (second compound 0.0316 µM): > 10 µM
IC50 (second compound 0.1 µM): > 10 µM
IC50 (second compound 0.316 µM): > 10 µM
IC50 (second compound 1 µM): > 10 µM
IC50 (second compound 3.16 µM): > 10 µM
IC50 (second compound 10 µM): > 10 µM
viability, T/C [1]: 85.1%
viability, T/C [2]: 90%
viability, T/C [3]: 93.8%
viability, T/C [4]: 89.9%
viability, T/C [5]: 87.1%
viability, T/C [6]: 69.5%
viability, T/C [7]: 103%
viability, T/C [8]: 87.7%
viability, T/C [9]: 88.9%
viability, T/C [10]: 117%
viability, T/C [11]: 99.2%
viability, T/C [12]: 106%
viability, T/C [13]: 88.5%
viability, T/C [14]: 96.9%
viability, T/C [15]: 102%
viability, T/C [16]: 111%
viability, T/C [17]: 103%
viability, T/C [18]: 92.3%
viability, T/C [19]: 97.2%
viability, T/C [20]: 97.2%
viability, T/C [21]: 67.9%
viability, T/C [22]: 83.5%
viability, T/C [23]: 117%
viability, T/C [24]: 103%
viability, T/C [25]: 82.5%
viability, T/C [26]: 102%
viability, T/C [27]: 90.3%
viability, T/C [28]: 87.2%
viability, T/C [29]: 104%
viability, T/C [30]: 88.8%
viability, T/C [31]: 66.3%
viability, T/C [32]: 92.3%
viability, T/C [33]: 84.3%
viability, T/C [34]: 74.9%
viability, T/C [35]: 95.3%
viability, T/C [36]: 90.5%
